Assay results from US12208088B2 (Genentech, Inc., priority 2018, dated 2025).

These compounds were tested against HPK1 (Homo sapiens (Human), UniProt Q92918) (assay: HPK1 Lantha binding assay ("Lanth")). Conditions: binding assays; Morrison Ki fit.
Outline: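 Ki values are from Morrison-equation fitting of 665/615 nm TR-FRET signals, taking enzyme level, tracer level and tracer Kd into account. The assay mix held HPK1 (2 nM), Eu-anti-GST antibody (2 nM) and Tracer222 (15 nM). Incubations were two 1 h steps at 23 °C, on 5-fold serial compound dilutions.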

HPK1, sequence (Q92918 1-346 limits assumed): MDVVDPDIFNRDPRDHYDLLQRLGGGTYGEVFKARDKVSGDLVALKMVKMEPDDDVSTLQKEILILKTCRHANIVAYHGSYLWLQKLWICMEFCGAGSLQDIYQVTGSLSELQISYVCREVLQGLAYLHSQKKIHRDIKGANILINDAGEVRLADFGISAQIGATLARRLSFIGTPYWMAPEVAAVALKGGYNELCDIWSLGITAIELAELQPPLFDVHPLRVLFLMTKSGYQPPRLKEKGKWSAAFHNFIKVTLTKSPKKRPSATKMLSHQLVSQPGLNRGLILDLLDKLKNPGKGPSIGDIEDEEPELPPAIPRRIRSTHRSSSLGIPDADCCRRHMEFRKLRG

SMILES	Ki [nM]
O=C1NCCCC1c1cccc(-c2cnc3c(c2Cl)C2(CC2)CN3)c1 (centres unmarked) [Compound 58, 3-(3-(4′-Chloro-1′,2′-dihydrospiro[cyclopropane-1,3′-pyrrolo[2,3-b]pyridin]-5′-yl)phenyl)piperidin-2-one]	43.7
O=C1NCCCN1c1cccc(-c2cnc3c(c2Cl)C2(CC2)CN3)c1 [Compound 59, 1-(3-(4′-Chloro-1′,2′-dihydrospiro[cyclopropane-1,3′-pyrrolo[2,3-b]pyridin]-5′-yl)phenyl)tetrahydropyrimidin-2(1H)-one]	14.2
O=C1CCCCN1c1cccc(-c2cnc3c(c2Cl)C2(CC2)CN3)c1 [Compound 60, 1-(3-(4′-Chloro-1′,2′-dihydrospiro[cyclopropane-1,3′-pyrrolo[2,3-b]pyridin]-5′-yl)phenyl)piperidin-2-one]	16
Nc1cc(-c2cnc3c(c2Cl)C2(CCC(O)C2)CN3)cc(-c2ncccc2CO)c1 (centres unmarked) [Compound 61, 5′-(3-Amino-5-(3-(hydroxymethyl)pyridin-2-yl)phenyl)-4′-chloro-1′,2′-dihydrospiro[cyclopentane-1,3′-pyrrolo[2,3-b]pyridin]-3-ol]	12.8
NS(=O)(=O)c1cccc(-c2cnc3c(c2)C2(CC2)CN3)c1 [Compound 62, 3-(1′,2′-Dihydrospiro[cyclopropane-1,3′-pyrrolo[2,3-b]pyridin]-5′-yl)benzenesulfonamide]	66.4
CS(=O)(=O)c1cccc(-c2cnc3c(c2)C2(CC2)CN3)c1 [Compound 63, 5′-(3-(Methylsulfonyl)phenyl)-1′,2′-dihydrospiro[cyclopropane-1,3′-pyrrolo[2,3-b]pyridine]]	84.9
CC(=O)Nc1ccc(-c2cnc3c(c2)C2(CC2)CN3)cc1C(F)(F)F [Compound 64, N-(4-(1′,2′-Dihydrospiro[cyclopropane-1,3′-pyrrolo[2,3-b]pyridin]-5′-yl)-2-(trifluoromethyl)phenyl)acetamide]	89.1
NS(=O)(=O)c1ccc(-c2cnc3c(c2)C2(CC2)CN3)cc1 [Compound 65, 4-(1′,2′-Dihydrospiro[cyclopropane-1,3′-pyrrolo[2,3-b]pyridin]-5′-yl)benzenesulfonamide]	135
CN(C)C(=O)c1c(N)ccc(-c2cnc3c(c2)C2(CCC2)CN3)c1F [Compound 66, 6-Amino-3-(1′,2′-dihydrospiro[cyclobutane-1,3′-pyrrolo[2,3-b]pyridin]-5′-yl)-2-fluoro-N,N-dimethylbenzamide]	53.1
O=C1NCCCN1c1cccc(-c2cnc3c(c2)C2(CC2)CN3)c1 [Compound 67, 1-(3-(1′,2′-Dihydrospiro[cyclopropane-1,3′-pyrrolo[2,3-b]pyridin]-5′-yl)phenyl)tetrahydropyrimidin-2(1H)-one]	27.5
Cn1cccc(-c2cccc(-c3cnc4c(c3Cl)[C@]3(CC[C@H](O)C3)CN4)c2)c1=O [Compound 68c, 3-(3-((1R,3S)-4′-chloro-3-hydroxy-1′,2′-dihydrospiro[cyclopentane-1,3′-pyrrolo[2,3-b]pyridin]-5′-yl)phenyl)-1-methylpyridin-2(1H)-one]	5.4
C[C@@H]1CNC(=O)N1c1cccc(-c2cnc3c(c2Cl)C2(CC2)CN3)c1 [Compound 69a, (R)-1-(3-(4′-Chloro-1′,2′-dihydrospiro[cyclopropane-1,3′-pyrrolo[2,3-b]pyridin]-5′-yl)phenyl)-5-methylimidazolidin-2-one]	35.6
C[C@H]1CNC(=O)N1c1cccc(-c2cnc3c(c2Cl)C2(CC2)CN3)c1 [Compound 69b, (S)-1-(3-(4′-Chloro-1′,2′-dihydrospiro[cyclopropane-1,3′-pyrrolo[2,3-b]pyridin]-5′-yl)phenyl)-5-methylimidazolidin-2-one]	16
O=C1NCCCN1c1cccc(-c2cnc3c(c2)C2(CC2)CN3)n1 [Compound 70, 1-(6-(1′,2′-Dihydrospiro[cyclopropane-1,3′-pyrrolo[2,3-b]pyridin]-5′-yl)pyridin-2-yl)tetrahydropyrimidin-2(1H)-one]	102
